From patent publication US8269026B2, “Lupane derivatives useful for treating HIV” (priority 2008, dated 2012)
Where a name gives a salt, the structure may show the parent alone. Read-outs that look alike come from different tables or passages of the source.

Test system: HIV-1 (HIVIIIB) replication in MT2 cell line
Experiment: HIV-1 replication in MT2 cell line with and without 30% human serum (viral RT activity in supernatant)
Type: cell-based
Procedure, shortened: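 Read-out is supernatant reverse transcriptase activity on day 5 post-infection, giving IC50 and IC90. Compounds were titrated in complete medium ± 30% human serum, re-dosed after 3 days, on MT2 cells exposed for 3 h to HIVIIIB at MOI 0.5 then washed.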

[1] = Human immunodeficiency virus 1, MT2 cells, with 30% human serum, average IC50 if tested more than once, read-out: MT2 (HIVIIIB) with HS 30% IC50 range
[2] = Human immunodeficiency virus 1, MT2 cells, without human serum, average IC50 if tested more than once, read-out: MT2 (HIVIIIB) IC50 range

With `Cc1cc(NC(=O)N[C@@]23CC[C@]4(C)[C@H](CC[C@@H]5[C@@]6(C)CC[C@H](OC(=O)CC(C)(C)C(=O)O)C(C)(C)[C@@H]6CC[C@]54C)C2=C(C(C)C)C(=O)C3)ccn1` [17-47, 3β-O-(3′,3′-Dimethylsuccinyl)-17β-(N′-2-methylpyridin-4-yl-ureido)-21-oxolup-18-ene] the IC50 [1] was under 199 nM.

For `CC(C)C1=C2[C@H]3CC[C@@H]4[C@@]5(C)CC[C@H](OC(=O)CC(C)(C)C(=O)O)C(C)(C)[C@@H]5CC[C@@]4(C)[C@]3(C)CC[C@@]2(NC(=O)CN2CCN(C)CC2)CC1=O` [19-54, 3β-O-(3′,3′-Dimethylsuccinyl)-17β-(4-methylpiperazine-1-acetamido)-21-oxolup-18-ene], the IC50 [1] was under 199 nM.

Compound `Cc1ccncc1C(=O)N[C@@]12CC[C@]3(C)[C@H](CC[C@@H]4[C@@]5(C)CC[C@H](OC(=O)CC(C)(C)C(=O)O)C(C)(C)[C@@H]5CC[C@]43C)C1=C(C(C)C)C(=O)C2` [19-49, 3β-O-(3′,3′-Dimethylsuccinyl)-17β-(4-methylpyridin-3-yl)amido-21-oxolup-18-ene] has an IC50 [1] of under 199 nM.

`CC(C)C1=C2C3CCC4[C@@]5(C)CC[C@H](OC(=O)CC(C)(C)C(=O)O)C(C)(C)C5CC[C@@]4(C)[C@]3(C)CC[C@@]2(NC(=O)OCc2ccccc2)CC1=O` (stereo partly drawn) [20-8, 3β-O-(3′,3′-Dimethylsuccinyl)-17β-benzyloxycarbonylamino-21-oxolup-18-ene] showed an IC50 [1] of under 199 nM.

`CC(C)C1=C2C3CCC4[C@@]5(C)CC[C@H](OC(=O)CC(C)(C)C(=O)O)C(C)(C)C5CC[C@@]4(C)[C@]3(C)CC[C@@]2(NC(=O)OC(C)C2CC2)CC1=O` (stereo partly drawn) [20-10, 3β-O-(3′,3′-Dimethylsuccinyl)-17β-(1-cyclopropylethoxycarbonylamino)-21-oxolup-18-ene] gave an IC50 [1] of under 199 nM.

In the case of `CC(C)C1=C2[C@H]3CC[C@@H]4[C@@]5(C)CC[C@H](OC(=O)CC(C)(C)C(=O)O)C(C)(C)[C@@H]5CC[C@@]4(C)[C@]3(C)CC[C@@]2(NC(=O)NCc2ccccc2)CC1=O` [17-1, 3β-O-(3′,3′-Dimethylsuccinyl)-17β[N′-(benzyl)ureido]-21-oxolup-18-ene], the IC50 [1] is reported as under 199 nM and the IC50 [2] is reported as under 199 nM.

`Cc1ccc(C(=O)N[C@@]23CC[C@]4(C)C(CCC5[C@@]6(C)CC[C@H](OC(=O)CC(C)(C)C(=O)O)C(C)(C)C6CC[C@]54C)C2=C(C(C)C)C(=O)C3)s1` (stereo partly drawn) [19-77, 3β-O-(3′,3′-Dimethylsuccinyl)-17β-(5-methyl-thiophene-2-amido)-21-oxolup-18-ene] showed an IC50 [1] of under 199 nM.

`CC(C)C1=C2[C@H]3CC[C@@H]4[C@@]5(C)CC[C@H](OC(=O)CC(C)(C)C(=O)O)C(C)(C)[C@@H]5CC[C@@]4(C)[C@]3(C)CC[C@@]2(NC(=O)c2cccnc2)CC1=O` [19-8, 3β-O-(3′,3′-Dimethylsuccinyl)-17β-(pyridin-3-yl)amido-21-oxolup-18-ene] gave an IC50 [1] of under 199 nM and an IC50 [2] of under 199 nM.

With `CC(C)C1=C2C3CCC4[C@@]5(C)CC[C@H](OC(=O)CC(C)(C)C(=O)O)C(C)(C)C5CC[C@@]4(C)[C@]3(C)CC[C@@]2(NC(=O)N2CCC(N)CC2)CC1=O` (stereo partly drawn) [17-23, 3β-O-(3′,3′-Dimethylsuccinyl)-17β-[(4-amino-piperidine-1-carbonyl)-amino]-21-oxolup-18-ene trifluoroacetate] the IC50 (read-out: MT2 (HIVIIIB) with HS 30% IC50 range, MT2 cells, with 30% human serum, average IC50 if tested more than once) was 200 to 999 nM.

Compound `CC(C)C1=C2C3CCC4[C@@]5(C)CC[C@H](OC(=O)CC(C)(C)C(=O)O)C(C)(C)C5CC[C@@]4(C)[C@]3(C)CC[C@@]2(NC(=O)c2nnc(C3CC3)o2)CC1=O` (stereo partly drawn) [19-62, 3β-O-(3′,3′-Dimethylsuccinyl)-17β-(5-cyclopropyl-[1,3,4]oxadiazole-2-amido)-21-oxolup-18-ene] has an IC50 [1] of under 199 nM.

`CC(C)C1=C2C3CCC4[C@@]5(C)CC[C@H](OC(=O)CC(C)(C)C(=O)O)C(C)(C)C5CC[C@@]4(C)[C@]3(C)CC[C@@]2(NC(=O)NCC2CCC(F)(F)CC2)CC1=O` (stereo partly drawn) [17-60, 3β-O-(3′,3′-Dimethylsuccinyl)-17β-[N′-(4,4-difluoro-cyclohexyl-methyl)ureido]-21-oxolup-18-ene] showed an IC50 [1] of under 199 nM.

Work on `CC(C)C1=C2[C@H]3CC[C@@H]4[C@@]5(C)CC[C@H](OC(=O)CC(C)(C)C(=O)O)C(C)(C)[C@@H]5CC[C@@]4(C)[C@]3(C)CC[C@@]2(NC(=O)Cc2ccc(F)cc2)CC1=O` [19-9, 3β-O-(3′,3′-Dimethylsuccinyl)-17β-(4-fluorobenzyl)amido-21-oxolup-18-ene] yielded an IC50 [1] of under 199 nM and an IC50 [2] of under 199 nM.

`CC(C)C1=C2[C@H]3CC[C@@H]4[C@@]5(C)CC[C@H](OC(=O)CC(C)(C)C(=O)O)C(C)(C)[C@@H]5CC[C@@]4(C)[C@]3(C)CC[C@@]2(NC(=O)CC(C)(C)C(=O)O)CC1=O` [19-3, 3β-O,17β-N-bis(3′,3′-dimethylsuccinyl)-21-oxolup-18-ene] was tested, and the IC50 [2] was under 199 nM.

Work on `CC(C)C1=C2C3CCC4[C@@]5(C)CC[C@H](OC(=O)CC(C)(C)C(=O)O)C(C)(C)C5CC[C@@]4(C)[C@]3(C)CC[C@@]2(NC(=O)Cc2ccccc2)CC1=O` (stereo partly drawn) [19-29, 3β-O-(3′,3′-Dimethylsuccinyl)-17β-phenylacetamido-21-oxolup-18-ene] yielded an IC50 [1] of under 199 nM.

`CC(C)C1=C2C3CCC4[C@@]5(C)CC[C@H](OC(=O)CC(C)(C)C(=O)O)C(C)(C)C5CC[C@@]4(C)[C@]3(C)CC[C@@]2(NC(=O)OCC2(C)CC2)CC1=O` (stereo partly drawn) [20-11, 3β-O-(3′,3′-Dimethylsuccinyl)-17β-(1-methyl-cyclopropylmethoxycarbonylamino)-21-oxolup-18-ene] gave an IC50 [1] of under 199 nM.

Compound `CC(C)C1=C2C3CCC4[C@@]5(C)CC[C@H](OC(=O)CC(C)(C)C(=O)O)C(C)(C)C5CC[C@@]4(C)[C@]3(C)CC[C@@]2(NC(=O)NC2CCC(F)(F)CC2)CC1=O` (stereo partly drawn) [17-57, 3β-O-(3′,3′-Dimethylsuccinyl)-17β-[N′-(4,4-difluorocyclohexyl)ureido]-21-oxolup-18-ene] has an IC50 [1] of under 199 nM.

Work on `CC(=O)N1CCN(C(=O)N[C@@]23CC[C@]4(C)[C@H](CC[C@@H]5[C@@]6(C)CC[C@H](OC(=O)CC(C)(C)C(=O)O)C(C)(C)[C@@H]6CC[C@]54C)C2=C(C(C)C)C(=O)C3)CC1` [17-17, 3β-O-(3′,3′-Dimethylsuccinyl)-17β-[(4-acetyl-piperazine-1-carbonyl)-amino]-21-oxolup-18-ene] yielded an IC50 [1] of under 199 nM.

For `CC(C)C1=C2C3CCC4[C@@]5(C)CC[C@H](OC(=O)CC(C)(C)C(=O)O)C(C)(C)C5CC[C@@]4(C)[C@]3(C)CC[C@@]2(NC(=O)OCC2CCN(C)CC2)CC1=O` (stereo partly drawn) [20-18, 3β-O-(3′,3′-Dimethylsuccinyl)-17β-(1-methylpiperidine-4-methoxycarbonylamino)-21-oxolup-18-ene], the IC50 [1] was under 199 nM.
